Experiments:
cocklebur = assay: Test B pre/postemergence cocklebur; assay type: in vivo, Xanthium strumarium
Procedure, shortened: (§1)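 Response is a visual 0-to-10 score relative to untreated plants, where 0 means no effect and 10 means complete control, taken twelve to sixteen days after application. Treatments went onto soil at planting and onto foliage of 1- to 4-leaf plants, using a surfactant-containing non-phytotoxic solvent.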

corn = assay: Test B pre/postemergence corn; assay type: in vivo, Zea mays
Procedure, shortened: as §1

velvetleaf = assay: Test B pre/postemergence velvetleaf; assay type: in vivo, Abutilon theophrasti
Procedure, shortened: as §1

purple nutsedge = assay: Test B pre/postemergence purple nutsedge; assay type: in vivo, Cyperus rotundus
Procedure, shortened: as §1

wheat = assay: Test B pre/postemergence wheat; assay type: in vivo, Triticum aestivum
Procedure, shortened: as §1

rape = assay: Test B pre/postemergence rape; assay type: in vivo, Brassica napus
Procedure, shortened: as §1

bedstraw = assay: Test B pre/postemergence bedstraw; assay type: in vivo, Galium aparine; conditions: for Bedstraw plant response rating: 10 is complete control
Procedure, shortened: as §1

morningglory = assay: Test B pre/postemergence morningglory; assay type: in vivo, Ipomoea hederacea
Procedure, shortened: as §1

crabgrass = assay: Test B pre/postemergence crabgrass; assay type: in vivo, Digitaria sanguinalis
Procedure, shortened: as §1

pigweed = assay: Test B pre/postemergence pigweed; assay type: in vivo, Amaranthus retroflexus
Procedure, shortened: as §1

giant foxtail = assay: Test B pre/postemergence giant foxtail; assay type: in vivo, Setaria faberii
Procedure, shortened: as §1

soybean = assay: Test B pre/postemergence soybean; assay type: in vivo, Glycine max
Procedure, shortened: as §1

wild oat = assay: Test B pre/postemergence wild oat; assay type: in vivo, Avena fatua
Procedure, shortened: as §1

blackgrass = assay: Test B pre/postemergence blackgrass; assay type: in vivo, Alopecurus myosuroides
Procedure, shortened: as §1

sugar beet = assay: Test B pre/postemergence sugar beet; assay type: in vivo, Beta vulgaris
Procedure, shortened: as §1

surinam grass = assay: Test B pre/postemergence surinam grass; assay type: in vivo, Brachiaria decumbens
Procedure, shortened: as §1

[1] = Postemergence, Rate 62 g/ha, scale of 0 to 10, 0 is no effect, 10 is complete control
[2] = Postemergence, Rate 125 g/ha, scale 0 to 10, 0 is no effect, 10 is complete control
[3] = Postemergence, Rate 500 g/ha, scale 0 to 10, 0 is no effect, 10 is complete control
[4] = Preemergence, Rate 62 g/ha, scale of 0 to 10 where 0 is no effect and 10 is complete control
[5] = Preemergence, Rate 125 g/ha, scale 0 to 10, 0 is no effect, 10 is complete control
[6] = Preemergence, Rate 500 g/ha, scale of 0 to 10 where 0 is no effect and 10 is complete control
[7] = Rate 250 g/ha, Postemergence, scale of 0 to 10 where 0 is no effect and 10 is complete control

CCC=CCn1c(=O)on(C(=O)N(c2ccc(F)cc2F)C(C)C)c1=O [Compound 523]
Cocklebur plant response rating (cocklebur; [1]): 0
Cocklebur plant response rating (cocklebur; [2]): 2
Plant response rating, Cocklebur (cocklebur; [3]): 2
Plant response rating, Cocklebur (cocklebur; [4]): 0
Cocklebur plant response rating (cocklebur; [5]): 0
Cocklebur plant response rating (0 to 10 scale) (cocklebur; Preemergence, Rate 250 g/ha): 0
Cocklebur plant response rating (cocklebur; [6]): 0
Plant response rating, Cocklebur (cocklebur; [7]): 2
Corn plant response rating (corn; [1]): 0
Corn plant response rating (corn; [2]): 0
Plant response rating, Corn (corn; [3]): 2
Plant response rating, Corn (corn; [4]): 0
Corn plant response rating (corn; [5]): 0
Corn plant response rating (0 to 10 scale) (corn; Preemergence, Rate 250 g/ha): 0
Corn plant response rating (corn; [6]): 9
Plant response rating, Corn (corn; [7]): 2
Velvetleaf plant response rating (velvetleaf; [1]): 0
Velvetleaf plant response rating (velvetleaf; [2]): 3
Plant response rating, Velvetleaf (velvetleaf; [3]): 4
Plant response rating, Velvetleaf (velvetleaf; [4]): 0
Velvetleaf plant response rating (velvetleaf; [5]): 2
Velvetleaf plant response rating (0 to 10 scale) (velvetleaf; Preemergence, Rate 250 g/ha): 2
Velvetleaf plant response rating (velvetleaf; [6]): 5
Plant response rating, Velvetleaf (velvetleaf; [7]): 3
Nutsedge plant response rating (purple nutsedge; [1]): 0
Nutsedge plant response rating (purple nutsedge; [2]): 0
Plant response rating, Nutsedge (purple nutsedge; [3]): 0
Plant response rating, Nutsedge (purple nutsedge; [4]): 0
Nutsedge plant response rating (purple nutsedge; [5]): 0
Nutsedge plant response rating (0 to 10 scale) (purple nutsedge; Preemergence, Rate 250 g/ha): 0
Nutsedge plant response rating (purple nutsedge; [6]): 0
Plant response rating, Nutsedge (purple nutsedge; [7]): 0
Wheat plant response rating (wheat; [1]): 0
Wheat plant response rating (wheat; [2]): 0
Plant response rating, Wheat (wheat; [3]): 2
Plant response rating, Wheat (wheat; [4]): 0
Wheat plant response rating (wheat; [5]): 0
Wheat plant response rating (0 to 10 scale) (wheat; Preemergence, Rate 250 g/ha): 0
Wheat plant response rating (wheat; [6]): 4
Plant response rating, Wheat (wheat; [7]): 0
Rape plant response rating (rape; [1]): 0
Rape plant response rating (rape; [2]): 0
Plant response rating, Rape (rape; [3]): 2
Plant response rating, Rape (rape; [4]): 0
Rape plant response rating (rape; [5]): 0
Rape plant response rating (0 to 10 scale) (rape; Preemergence, Rate 250 g/ha): 4
Rape plant response rating (rape; [6]): 7
Plant response rating, Rape (rape; [7]): 2
Bedstraw plant response rating (bedstraw; Postemergence, Rate 62 g/ha, scale of 0 to 10, 0 is no effect): 0
Bedstraw plant response rating (bedstraw; Postemergence, Rate 125 g/ha, scale 0 to 10, 0 is no effect): 0
Plant response rating, Bedstraw (bedstraw; [4]): 0
Bedstraw plant response rating (bedstraw; Preemergence, Rate 125 g/ha, scale 0 to 10, 0 is no effect): 0
Bedstraw plant response rating (0 to 10 scale) (bedstraw; Preemergence, Rate 250 g/ha): 0
Bedstraw plant response rating (bedstraw; Preemergence, Rate 500 g/ha, scale 0 to 10, 0 is no effect): 0
Morningglory plant response rating (morningglory; [1]): 2
Morningglory plant response rating (morningglory; [2]): 3
Plant response rating, Morningglory (morningglory; [3]): 4
Plant response rating, Morningglory (morningglory; [4]): 2
Morningglory plant response rating (morningglory; [5]): 4
Morningglory plant response rating (0 to 10 scale) (morningglory; Preemergence, Rate 250 g/ha): 0
Morningglory plant response rating (morningglory; [6]): 0
Plant response rating, Morningglory (morningglory; [7]): 4
Crabgrass plant response rating (crabgrass; [1]): 3
Crabgrass plant response rating (crabgrass; [2]): 8
Plant response rating, Crabgrass (crabgrass; [3]): 10
Plant response rating, Crabgrass (crabgrass; [4]): 9
Crabgrass plant response rating (crabgrass; [5]): 10
Crabgrass plant response rating (0 to 10 scale) (crabgrass; Preemergence, Rate 250 g/ha): 10
Crabgrass plant response rating (crabgrass; [6]): 10
Plant response rating, Crabgrass (crabgrass; [7]): 6
Redroot pigweed plant response rating (pigweed; [1]): 0
Redroot pigweed plant response rating (pigweed; [2]): 2
Plant response rating, Redroot pigweed (pigweed; [3]): 3
Plant response rating, Redroot pigweed (pigweed; [4]): 2
Redroot pigweed plant response rating (pigweed; [5]): 9
Redroot pigweed plant response rating (0 to 10 scale) (pigweed; Preemergence, Rate 250 g/ha): 9
Redroot pigweed plant response rating (pigweed; [6]): 9
Plant response rating, Redroot pigweed (pigweed; [7]): 3
Giant foxtail plant response rating (giant foxtail; [1]): 2
Giant foxtail plant response rating (giant foxtail; [2]): 2
Plant response rating, Giant foxtail (giant foxtail; [3]): 6
Plant response rating, Giant foxtail (giant foxtail; [4]): 10
Giant foxtail plant response rating (giant foxtail; [5]): 10
Giant foxtail plant response rating (0 to 10 scale) (giant foxtail; Preemergence, Rate 250 g/ha): 10
Giant foxtail plant response rating (giant foxtail; [6]): 10
Plant response rating, Giant foxtail (giant foxtail; [7]): 4
Soybean plant response rating (soybean; [1]): 4
Soybean plant response rating (soybean; [2]): 5
Plant response rating, Soybean (soybean; [3]): 5
Plant response rating, Soybean (soybean; [4]): 0
Soybean plant response rating (soybean; [5]): 0
Soybean plant response rating (0 to 10 scale) (soybean; Preemergence, Rate 250 g/ha): 0
Soybean plant response rating (soybean; [6]): 0
Plant response rating, Soybean (soybean; [7]): 5
Wild oats plant response rating (wild oat; [1]): 0
Wild oats plant response rating (wild oat; [2]): 0
Plant response rating, Wild oats (wild oat; [3]): 2
Plant response rating, Wild oats (wild oat; [4]): 0
Wild oats plant response rating (wild oat; [5]): 0
Wild oats plant response rating (0 to 10 scale) (wild oat; Preemergence, Rate 250 g/ha): 0
Wild oats plant response rating (wild oat; [6]): 0
Plant response rating, Wild oats (wild oat; [7]): 0
Blackgrass plant response rating (blackgrass; [1]): 0
Blackgrass plant response rating (blackgrass; [2]): 0
Plant response rating, Blackgrass (blackgrass; [3]): 4
Plant response rating, Blackgrass (blackgrass; [4]): 2
Blackgrass plant response rating (blackgrass; [5]): 4
Blackgrass plant response rating (0 to 10 scale) (blackgrass; Preemergence, Rate 250 g/ha): 7
Blackgrass plant response rating (blackgrass; [6]): 7
Plant response rating, Blackgrass (blackgrass; [7]): 3
Sugarbeets plant response rating (sugar beet; [1]): 0
Sugarbeets plant response rating (sugar beet; [2]): 0
Plant response rating, Sugarbeets (sugar beet; [3]): 0
Plant response rating, Sugarbeets (sugar beet; [4]): 3
Sugarbeets plant response rating (sugar beet; [5]): 4
Sugarbeets plant response rating (0 to 10 scale) (sugar beet; Preemergence, Rate 250 g/ha): 7
Sugarbeets plant response rating (sugar beet; [6]): 9
Plant response rating, Sugarbeets (sugar beet; [7]): 0
B. signalgrass plant response rating (surinam grass; [1]): 0
B. signalgrass plant response rating (surinam grass; [2]): 0
Plant response rating, B. signalgrass (surinam grass; [3]): 7
Plant response rating, B. signalgrass (surinam grass; [4]): 4
B. signalgrass plant response rating (surinam grass; [5]): 8
B. signalgrass plant response rating (0 to 10 scale, 0 is no effect, 10 is complete control) (surinam grass; Preemergence, Rate 250 g/ha): 9
B. signalgrass plant response rating (surinam grass; Preemergence, Rate 500 g/ha, scale 0 to 10, 0 is no effect, 10 is complete control): 5
Plant response rating, B. signalgrass (surinam grass; [7]): 2
